Assay results taken from ChEMBL document CHEMBL4368892, “Isatin and its derivatives: a survey of recent syntheses, reactions, and applications” (Medchemcomm, 2019).

Assays:
LoVo = assay: Antiproliferative activity against human LoVo cells by WST-1 assay; assay type: functional, cell-based
Histone deacetylase = assay: Inhibition of HDAC (unknown origin); assay type: protein assay, Homo sapiens

## Cc1ccc2nc(SCC(=O)N/N=C3\C(=O)Nc4ccc([N+](=O)[O-])cc43)n(Cc3ccccc3)c(=O)c2c1
LoVo
  IC50: 9.91 to 17.9 µM

## Cc1ccc2nc(SCC(=O)N/N=C3\C(=O)Nc4ccc(Cl)cc43)n(Cc3ccccc3)c(=O)c2c1
LoVo
  IC50: 9.91 to 17.9 µM

## Cc1ccc2nc(SCC(=O)N/N=C3\C(=O)Nc4ccccc43)n(-c3ccccc3)c(=O)c2c1
LoVo
  IC50: 9.91 to 17.9 µM

## O=C(CNC(=S)N/N=C1\C(=O)Nc2ccc(Cl)cc21)NO
Histone deacetylase
  IC50: 0.97 µM

## Cc1ccc2nc(SCC(=O)N/N=C3\C(=O)Nc4ccc([N+](=O)[O-])cc43)n(-c3ccccc3)c(=O)c2c1
LoVo
  IC50: 9.91 to 17.9 µM

## O=C(CSc1nc2ccccc2c(=O)n1-c1ccccc1)N/N=C1\C(=O)Nc2ccc(Cl)cc21
LoVo
  IC50: 9.91 to 17.9 µM

## O=C(CSc1nc2ccccc2c(=O)n1CCc1ccccc1)N/N=C1\C(=O)Nc2ccccc21
LoVo
  IC50: 9.91 to 17.9 µM

## O=C(CSc1nc2ccccc2c(=O)n1CCc1ccccc1)N/N=C1\C(=O)Nc2ccc(Cl)cc21
LoVo
  IC50: 9.91 to 17.9 µM

## Cc1ccc2nc(SCC(=O)N/N=C3\C(=O)Nc4ccc(F)cc43)n(Cc3ccccc3)c(=O)c2c1
LoVo
  IC50: 9.91 to 17.9 µM

## Cc1ccc2nc(SCC(=O)N/N=C3\C(=O)Nc4ccc(F)cc43)n(-c3ccccc3)c(=O)c2c1
LoVo
  IC50: 9.91 to 17.9 µM

## O=C(CSc1nc2ccccc2c(=O)n1-c1ccccc1)N/N=C1\C(=O)Nc2ccc([N+](=O)[O-])cc21
LoVo
  IC50: 9.91 to 17.9 µM

## Cc1ccc2nc(SCC(=O)N/N=C3\C(=O)Nc4ccc(Cl)cc43)n(-c3ccccc3)c(=O)c2c1
LoVo
  IC50: 9.91 to 17.9 µM

## O=C(CSc1nc2ccccc2c(=O)n1CCc1ccccc1)N/N=C1\C(=O)Nc2ccc(F)cc21
LoVo
  IC50: 9.91 to 17.9 µM

## O=C(CSc1nc2ccccc2c(=O)n1Cc1ccccc1)N/N=C1\C(=O)Nc2ccc([N+](=O)[O-])cc21
LoVo
  IC50: 9.91 to 17.9 µM

## Cc1ccc2nc(SCC(=O)N/N=C3\C(=O)Nc4ccccc43)n(Cc3ccccc3)c(=O)c2c1
LoVo
  IC50: 9.91 to 17.9 µM
